Experimental data reported in ChEMBL document CHEMBL1150453, “Novel catalytic activity of immobilized spores under reduced water activity” (1997).

Columns and labels:
Type in all cases: functional
Aspergillus ochraceus [1] = experiment: Compound was tested for transformation of progesterone by Dehydrated immobilized spores of Aspergillus orchraceus TS using the method Ethylacetate
Aspergillus ochraceus [2] = experiment: Compound was tested for transformation of progesterone by Dehydrated immobilized spores of Aspergillus orchraceus TS using the method Freeze-thaw
Aspergillus ochraceus [3] = experiment: Compound was tested for transformation of progesterone by Dehydrated immobilized spores of Aspergillus orchraceus TS using the method n-Butylacetate
Aspergillus ochraceus [4] = experiment: Compound was tested for transformation of progesterone by Dehydrated immobilized spores of Aspergillus orchraceus TS using the method Amylacetate
Aspergillus ochraceus [5] = experiment: Compound was tested for transformation of progesterone by immobilized spores of Aspergillus orchraceus TS

SMILES | Activity (Aspergillus ochraceus [1]) | Activity (Aspergillus ochraceus [2]) | Activity (Aspergillus ochraceus [3]) | Activity (Aspergillus ochraceus [4]) | Activity (Aspergillus ochraceus [5])
C[C@]12CCC(=O)C=C1CC[C@@H]1[C@@H]2CC[C@]2(C)C(=O)CC[C@@H]12 [ANDROSTENEDIONE] | 58.7 uM (g of spores)-1 | 14.7 uM (g of spores)-1 | 40.4 uM (g of spores)-1 | 42.6 uM (g of spores)-1 | 
CC(=O)[C@@]1(O)CC[C@H]2[C@@H]3CCC4=CC(=O)CC[C@]4(C)[C@H]3CC[C@@]21C [HYDROXYPROGESTERONE] | 20.8 uM (g of spores)-1 |  | 12.2 uM (g of spores)-1 | 13.8 uM (g of spores)-1 | 
C[C@]12CCC(=O)C[C@@H]1CC[C@@H]1[C@@H]2CC[C@]2(C)[C@@H](O)CC[C@@H]12 [STANOLONE] | 4.2 uM (g of spores)-1 | 5.8 uM (g of spores)-1 | 2.7 uM (g of spores)-1 | 2.9 uM (g of spores)-1 | 
C[C@]12CC[C@H]3[C@@H](CCC4=CC(=O)CC[C@@]43C)[C@@H]1CC[C@@H]2O [TESTOSTERONE] | 3.9 uM (g of spores)-1 | 5.5 uM (g of spores)-1 | 2.6 uM (g of spores)-1 | 2.7 uM (g of spores)-1 | 
CC(=O)C1CCC2C3CCC4=CC(=O)CCC4(C)C3[C@@H](O)CC12C (stereo partly specified) |  | 14 uM (g of spores)-1 |  |  | 27.2 uM (g of spores)-1
C[C@]12C=CC(=O)C=C1CC[C@@H]1[C@@H]2CC[C@]2(C)C(=O)CC[C@@H]12 [ANDROSTENEDONE] | 22.2 uM (g of spores)-1 | 14.4 uM (g of spores)-1 | 15.8 uM (g of spores)-1 | 16.1 uM (g of spores)-1 | 
CC(=O)OC1CCC2C3CCC4=CC(=O)CCC4(C)C3CCC12C (stereo unspecified) |  | 5 uM (g of spores)-1 |  |  | 
CC(=O)C1CCC2C3CCC4=CC(=O)C=CC4(C)C3CCC12C (stereo unspecified) | 23.6 uM (g of spores)-1 | 7.6 uM (g of spores)-1 | 13.8 uM (g of spores)-1 | 16.1 uM (g of spores)-1 | 
